From US20260184807A1, “Methods for Treating Rheumatoid Arthritis Using a Syndecan-1 Inhibitor or Syntenin-1 Inhibitor” (The United States Government as represented by the …, priority 2022, published 2026)

Tested on: HUVECs
Assay: Metabolite quantification in Syntenin-1 treated HUVECs (colorimetric assay)
Assay type: cell-based, human
Details: Syntenin-1 1000 ng/ml 24 h, HIF1αi 2 μM, mTORi 1 μM, FIGS. 13I-K
Experimental: HUVECs were treated with 20 Syntenin-1 (1000 ng/ml) for 0-60 mins to detect expression of GLUT1. HK2. PFK2, cMYC. HIF1α, and LDHA (FIG. 13B) or 0-48 h to detect HK2, PFK2, mTOR/RAPTOR and LDHA (FIG. 13C) and actin was visualized as equal loading, (n=3). HUVECs were treated with PBS or Syntenin-1 (1000 ng/ml) in the presence or absence of 2-DG (5 mM), cMYCi (50 μM) and/or mTORi (1 μM) or HIF1αi (2 μM) to quantify transcription of HIF1α (FIG. 13E, n=10), RAPTOR (FIG. 13F, n=7). TNF (FIG. 13H, n=5). […] HUVECs were treated with PBS or Syntenin-1 (1000 ng/ml) in the presence or absence of SDC-1 Ab (SDCab: 1:100). […] Data are presented as mean±SEM; significant differences were determined by the Mann-Whitney test, 2way ANOVA, or one-way ANOVA. *p<0.05. **p<0.01, ***p<0.001, ****p<0.0001.
FIGS. 20A-F show blood Syntenin-1 and SDC-1 relative levels are unaffected by RA therapy and glycolytic metabolites can modulate inflammatory factors and oxidative metabolites in Syntenin-1 reprogrammed endothelial cells. Relative expression of Syntenin-1 (FIG. 20A) or SDC-1 (FIG. 20B) was determined by RNAseq (Lewis M J, et al. Cell reports. 2019; 28:2455-2470 e2455) in blood from RA non-responsive (Non-R)(ΔDAS28≤0.6, n=16) or those with moderate (ΔDAS28≤1.2 & >0.6, n=22) or good response (ΔDAS28>1.2, n=21). […]
Metabolite quantification. […]

SMILES: CO[C@H]1C[C@@H]2CC[C@@H](C)[C@@](O)(O2)C(=O)C(=O)N2CCCC[C@H]2C(=O)O[C@H]([C@H](C)C[C@@H]2CC[C@@H](OCCO)[C@H](OC)C2)CC(=O)[C@H](C)/C=C(\C)[C@@H](O)[C@@H](OC)C(=O)[C@H](C)C[C@H](C)/C=C/C=C/C=C/1C [mTORi, Everolimus]
- oxidative metabolites, AMPK, PGC-1a, and citrate: unchanged
